Measured values as given in patent US20150368220A1, “PHARMACEUTICAL COMPOSITION FOR TREATING OR PREVENTING STRESS URINARY INCONTINENCE OR MIXED URINARY INCONTINENCE, AND METHOD FOR SCREENING COMPOUND COMPRISED IN SAID PHARMACEUTICAL COMPOSITION” (Astellas Pharma Inc., priority 2012, published 2015).

Legend:
[1] = tested on: SD female rat; test: Effect on urethral pressure, perfusion method (Example 4); format: in vivo
Experimental: An SD female rat was anesthetized with urethane and allowed to undergo laparotomy, the bladder dome was then incised, and a catheter having a barb at the tip was inserted toward the urethra from the bladder, and ligated and fixed such that the tip of the catheter was positioned around the proximal urethra. Physiological saline was injected at a predetermined flow rate into the urethra through the catheter and the urethral pressure was measured with a pressure transducer. After the urethral pressure was stabilized, compounds dissolved in physiological saline, or physiological saline containing 5% N,N-dimethylacetamide(DMA) and 0.5% Cremophor were intravenously administered at a dose of 1 μg/kg, 10 μg/kg, 100 μg/kg, or 1000 μg/kg and a change in the urethral pressure was measured.

[2] = biological target: T1, human MT2 receptor (Homo sapiens, UniProt P49286); test: Intracellular Ca2+ concentration by FLIPR in human MT2 receptor expressing cells (Example 2); format: cell-based; details: human MT2 receptor expressing HEK293 cells, 10^-5 M to 10^-12 M, FIGS. 3 and 5
T1 construct: expressed in transfected cells; vector pCDNA3.1/Zeo; co-transfected with a Gq/i chimeric G protein expression vector
T1 sequence (P49286 1-362): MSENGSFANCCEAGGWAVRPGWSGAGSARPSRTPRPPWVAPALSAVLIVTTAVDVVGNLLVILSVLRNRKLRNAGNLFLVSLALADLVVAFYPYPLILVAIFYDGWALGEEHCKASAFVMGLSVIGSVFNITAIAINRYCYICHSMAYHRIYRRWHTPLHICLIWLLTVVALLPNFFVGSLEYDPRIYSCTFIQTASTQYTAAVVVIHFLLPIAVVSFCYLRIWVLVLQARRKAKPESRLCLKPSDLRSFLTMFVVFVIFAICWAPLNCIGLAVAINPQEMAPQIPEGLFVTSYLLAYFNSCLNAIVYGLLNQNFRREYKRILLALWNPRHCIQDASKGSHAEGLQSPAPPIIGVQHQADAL
Experimental: (§1) The expression vectors for human MT1 and MT2 receptors were introduced into HEK293 cells, together with a Gq/i chimeric G protein expression vector, respectively. The incorporation was carried out in accordance with instructions, using a Lipofectoamine (registered trademark) 2000 Reagent (Invitrogen Inc.). Using Zeocin and hygromycin as a resistant agent, the cells were cultured for 15 days in the presence of 0.02 mg/mL and 0.05 mg/mL of the agents, respectively, thereby acquiring a drug-resistant clone.
(§2) The respective stably expressing cells were dispensed into 96 wells in a poly-D-lysine-coated plate (Falcon) the day before the experiment to give 40,000 cells/well, and cultured in a DMEM (Invitrogen Inc.) medium containing 10% FBS at 37° C. and 5% CO2 overnight. The medium was replaced with a loading buffer (a washing solution containing 4 μM Fluo-4AM (Dojindo Co.) (Hank's balanced salt solution (HBSS), 20 mM HEPES-NaOH, 2.5 mM probenecid)) and cultured at 37° C. and 5% CO2 for 1 hour.

[3] = tested on: isolated urethra; test: Urethra contracting action using isolated urethra (Example 3); details: isolated urethra of SD female rat, cumulative 10^-5 M to 10^-12 M, FIGS. 6 and 7
Experimental: The urethra was isolated from an SD female rat having a body weight of 100 g to 500 g. The isolated urethra was incised vertically and then made into strip-shaped specimens having a width of about 3 mm. The specimens were suspended in a 10 mL tissue bus filled with a Krebs—Henseleit solution (pH 7.4) in the circular muscle direction. The Krebs—Henseleit solution was aerated at 95% O2 and 5% CO2, and warmed at 37° C. The resting tension was set to 0.5 g and the isometric contraction was recorded. After the resting tension was stabilized, a 10 μM phenylephrine solution was added thereto to cause contraction.

[4] = biological target: T2, human MT1 receptor (Homo sapiens, UniProt P48039); test: Intracellular Ca2+ concentration by FLIPR in human MT1 receptor expressing cells (Example 2); format: cell-based; details: human MT1 receptor expressing HEK293 cells, 10^-5 M to 10^-12 M, FIGS. 2 and 4
T2 construct: expressed in transfected cells; vector pCDNA3.1/Zeo; co-transfected with a Gq/i chimeric G protein expression vector
Experimental: as §1, §2

[5] = tested on: isolated urethra; test: Effect of luzindole on urethra contracting action of ramelteon in isolated urethra (Example 5); set-up: species or system rat; details: for isolated urethra contracting action: contraction by 1 μM ramelteon at first time = 100%
Experimental: The urethra was isolated from an SD female rat having a body weight of 100 g to 500 g. The isolated urethra was incised vertically and then made into strip-shaped specimens having a width of about 3 mm. The specimens were suspended in a 10 mL tissue bus filled with a Krebs-Henseleit solution (pH 7.4) in the circular muscle direction or the longitudinal muscle direction. […] The resting tension was set to 0.5 g and the isometric contraction was recorded. After the resting tension was stabilized, a 10 μM phenylephrine solution was added thereto to cause contraction. After washing and stabilizing, the compound (ramelteon) was cumulatively added to a final concentration of 10^−5 M to 10^−12 M and the contraction response was measured. After washing and stabilizing, luzindole was added, after 20 minutes, ramelteon was cumulatively added again, and the contraction response was measured.

[6] = biological target: T2, human MT1 receptor; test: Effect of luzindole on ramelteon-induced intracellular Ca2+ increase in human MT1 receptor expressing cells (Example 5); format: cell-based; details: for intracellular Ca^2+ concentration increasing action: action by 10^-6 M ramelteon = 100%
Experimental: (§3) The respective stably expressing cells were dispensed into 96 wells in a poly-D-lysine-coated plate (Falcon) the day before the experiment to give 40,000 cells/well, and cultured in a DMEM (Invitrogen Inc.) medium containing 10% FBS at 37° C. and 5% CO2 overnight. The medium was replaced with a loading buffer (a washing solution containing 4 μM Fluo-4AM (Dojindo Co.) (Hank's balanced salt solution (HBSS), 20 mM HEPES-NaOH, 2.5 mM probenecid)) and cultured at 37° C. and 5% CO2 for 1 hour. Thereafter, the cells were washed with a plate washer (EL×405, BIO-TEK Instrument Inc.) having a washing solution set therein, and set in an intracellular Ca concentration measuring system (FLIPR (registered trademark), Molecular Device Inc.). Luzindole was preliminarily dissolved in a washing solution, diluted to a final concentration of 10^−5 M to 10^−7 M, and left to stand at room temperature for 5 minutes. Ramelteon was preliminarily dissolved in a washing solution and diluted to a final concentration of 10^−5 M to 10^−11 M, the resultant was set in an FLIPR (registered trademark) device together with the cells after leaving to stand for 5 minutes after the addition of luzindole, the cells were added to the device, and a change in the intracellular Ca^2+ concentration at that time was measured.

[7] = biological target: T1, human MT2 receptor; test: Effect of luzindole on ramelteon-induced intracellular Ca2+ increase in human MT2 receptor expressing cells (Example 5); format: cell-based; details: for intracellular Ca^2+ concentration increasing action: action by 10^-6 M ramelteon = 100%
Experimental: as §3

[8] = tested on: isolated bladder; test: Isolated bladder contraction (Example 6); details: isolated bladder of SD female rat, cumulative addition
Source text: (§4) (1) The bladder and uterus were isolated from an SD female rat having a body weight of 100 g to 500 g. For the isolated bladder, the parts below the parietal region and the triangular portion were resected to make only the body portion into a ring state, and further, one side of the tissue in the ring state was cut to a band-shaped tissue. The bladder in the band shape was isolated parallel to the median axis of the bladder to prepare strip-shaped specimens having a length of about 10 mm and a width of about 3 mm. The specimens were suspended in a 10 mL tissue bus filled with a Krebs-Henseleit solution (pH 7.4) at a resting tension of 0.5 g and the isometric contraction was recorded. For the isolated uterus, the edge portion of the uterus was cut and incised vertically, whereby a strip-shaped specimen having a width of about 6 mm was then prepared. The specimens were suspended in a 10 mL tissue bus filled with a Krebs—Henseleit solution (pH 7.4) at a resting tension of 0.5 g and the isometric contraction was recorded. […] For the bladder specimen, after the resting tension was stabilized, a 60 mM KCl solution or a 10 μM carbachol solution was added thereto to cause contraction. The specimens were washed and stabilized, and then the compounds were cumulatively administered.

[9] = tested on: SD female rat; test: Effect on urethral pressure, microchip method (Example 4); format: in vivo; details: intravenous, anesthetized SD female rat, FIGS. 8 and 9
Source text: An SD female rat was anesthetized with urethane and allowed to undergo laparotomy, and then a catheter was mounted in the bladder dome for urine leakage in the bladder. Further, a catheter was mounted in the femoral vein for the administration of a compound and a catheter was mounted in the carotid artery for the measurement of blood pressure described in Example 6 as described later. […] The catheter mounted in the carotid artery was attached to a pressure transducer and the blood pressure was measured.

[10] = tested on: isolated uterus; test: Isolated uterus contraction (Example 6); details: isolated uterus of SD female rat, cumulative 10^-5 M to 10^-11 M
Source text: as §4

[11] = tested on: SD female rat; test: Effect on rat blood pressure (Example 6); format: in vivo; details: intravenous, at a dose for increasing the urethral pressure, FIGS. 21 and 22
Source text: An SD female rat was anesthetized with urethane and allowed to undergo laparotomy, and then a catheter was mounted in the bladder dome for urine leakage in the bladder. Further, a catheter was mounted in the femoral vein for the administration of a compound and a catheter was mounted in the carotid artery for the measurement of blood pressure described in Example 6 as described later. A microchip transducer catheter (Milar Instruments) was inserted toward the bladder from the external urethral meatus for the measurement of the urethral pressure, and fixed such that the transducer portion was positioned around the portion at which the urethral pressure was maximized (10.0 mm to 15.0 mm from the external urethral meatus). The catheter mounted in the carotid artery was attached to a pressure transducer and the blood pressure was measured.
(2) In the experiment for measuring the urethral pressure in Example 4, the blood pressure was measured simultaneously. After the urethral pressure and the blood pressure were stabilized, the compound was administered and a change in the blood pressure was measured.

[12] = intravenous, anesthetized SD female rat, FIGS. 10 to 14
[13] = final concentration of ramelteon 10^-5 M

T2 sequence (P48039 whole entry): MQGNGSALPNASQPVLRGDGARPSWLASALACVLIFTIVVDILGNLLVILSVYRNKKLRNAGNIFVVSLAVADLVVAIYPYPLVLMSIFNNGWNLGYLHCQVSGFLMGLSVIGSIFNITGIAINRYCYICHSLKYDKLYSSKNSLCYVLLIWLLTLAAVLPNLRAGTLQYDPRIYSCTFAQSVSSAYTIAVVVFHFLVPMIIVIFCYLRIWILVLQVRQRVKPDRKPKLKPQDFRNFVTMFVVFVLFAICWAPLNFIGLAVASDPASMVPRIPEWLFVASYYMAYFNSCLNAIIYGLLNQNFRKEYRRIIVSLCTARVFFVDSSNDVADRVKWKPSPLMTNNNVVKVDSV

COc1ccc(OC)c(C(O)CN)c1 (stereo not shown) [ST-1059]
urethral pressure increasing action ([1]; rat, dose 0.01 mg/kg): 4.9±1.1 mmHg

COc1cc2c([C@@H](C)CNC(C)=O)c[nH]c2cc1Cl [TIK-301, N-[(2R)-2-(6-chloro-5-methoxy-1H-indol-3-yl)propyl]acetamide]
intracellular Ca^2+ concentration (melatonin receptor activating action) [2]: increased
urethra contracting action [3]: contracted the isolated urethra
intracellular Ca^2+ concentration (melatonin receptor activating action) [4]: increased
urethral pressure increasing action [1, 12]: increased the urethral pressure

COc1ccc2cccc(CCNC(C)=O)c2c1 [agomelatine, N-[2-(7-methoxynaphth-1-yl)ethyl]acetamide]
intracellular Ca^2+ concentration (melatonin receptor activating action) [2]: increased
urethra contracting action [3]: contracted the isolated urethra
intracellular Ca^2+ concentration (melatonin receptor activating action) [4]: increased
urethral pressure increasing action [1, 12]: increased the urethral pressure

CC(=O)NCCc1c(Cc2ccccc2)[nH]c2ccccc12 [luzindole, N-[2-[2-(phenylmethyl)-1H-indol-3-yl]ethyl]acetamide]
inhibiting action on isolated urethra contracting action [5, 13]: substantially did not exhibit an inhibiting action
isolated urethra contracting action ([5]; ramelteon 10^-5 M with 10^-5 M luzindole): 78%
isolated urethra contracting action ([5]; ramelteon 10^-5 M with 10^-6 M luzindole): 94%
isolated urethra contracting action ([5]; ramelteon 10^-5 M with 10^-7 M luzindole): 101%
inhibition of isolated urethra contracting action by ramelteon ([5]; treatment with luzindole 10^-7 M to 10^-5 M, FIG. 17): inhibited in a concentration-dependent manner
inhibition of the increase in intracellular Ca^2+ concentration by ramelteon ([6]; MT1 receptor expressing cells, FIG. 15): inhibited
intracellular Ca^2+ concentration increasing action ([6]; MT1 receptor expressing cells, ramelteon 10^-5 M with 10^-5 M luzindole): 94%
intracellular Ca^2+ concentration increasing action ([6]; MT1 receptor expressing cells, ramelteon 10^-5 M with 10^-6 M luzindole): 97%
intracellular Ca^2+ concentration increasing action ([6]; MT1 receptor expressing cells, ramelteon 10^-5 M with 10^-7 M luzindole): 100%
inhibiting action on the MT1 receptor [6, 13]: substantially did not exhibit an inhibiting action
inhibition of the increase in intracellular Ca^2+ concentration by ramelteon ([7]; MT2 receptor expressing cells, FIG. 16): inhibited
intracellular Ca^2+ concentration increasing action ([7]; MT2 receptor expressing cells, ramelteon 10^-5 M with 10^-5 M luzindole): 52%
intracellular Ca^2+ concentration increasing action ([7]; MT2 receptor expressing cells, ramelteon 10^-5 M with 10^-6 M luzindole): 60%
intracellular Ca^2+ concentration increasing action ([7]; MT2 receptor expressing cells, ramelteon 10^-5 M with 10^-7 M luzindole): 62%
inhibiting action, MT2 versus MT1 receptor expressing cells ([7]; comparison of MT2 and MT1 receptor expressing cells): stronger in the MT2 receptor expressing cells than in the MT1 receptor expressing cells

COc1ccc2[nH]cc(CCNC(C)=O)c2c1 [melatonin]
urethra contracting action [3]: contracted the isolated urethra
contraction action on the isolated bladder [8]: did not exhibit a contraction action
urethral pressure increasing action [1, 12]: increased the urethral pressure
urethral pressure increasing action [9]: increased the urethral pressure
contraction action on the isolated uterus [10]: did not exhibit a contraction action
effect on blood pressure (mean blood pressure) [11]: did not increase the blood pressure

CCC(=O)NC[C@@H]1C[C@H]1c1cccc2c1CCO2 [tasimelteon, (−)-(trans)-N-{[2-(2,3-dihydrobenzofuran-4-yl)cyclopropan-l-yl]methyl}propanamide]
intracellular Ca^2+ concentration (melatonin receptor activating action) [2]: increased
urethra contracting action [3]: contracted the isolated urethra
intracellular Ca^2+ concentration (melatonin receptor activating action) [4]: increased
urethral pressure increasing action [1, 12]: increased the urethral pressure
